Results taken from patent US6211173A, “Use of 2,3,4,5-tetrahydro-1H-3-benzazepines for the manufacture of a pharmaceutical composition for the treatment of sleep disorders” (Cenes Limited, priority 1997, dated 2001).
Values belong to the compound of their own block, whether it stands above or below them.

Tests used:
[1] = Serum concentration following oral administration in men (pharmacokinetic experiments); format: in vivo
Method: NNC 0756 (80 mg) and another dopamine D1 receptor antagonist, the compound of Example 4 (25 mg), were administered to two and three men, respectively. Serum concentrations of the compounds were measured 1.5 and 6.0 hours following oral administration of the compound of Example 4 and 1.5 and 8.0-8.8 hours following oral administration of NNC 0756.

[2] = background statement, no test described; cited from earlier work
[3] = test system: dopamine D1 receptor; conditions: preclinical, rat; cited from earlier work
[4] = test system: dopamine D1 receptor; conditions: preclinical, rat; cited from earlier work; remark: listed apart in the source

serum concentration of NNC 0756 relative to the serum concentration measured 1.5 hours after administration ([1]; 80 mg oral, two men, 8.0-8.8 hours after administration vs 1.5 hours): about 35%
Structure (SMILES): CN1CCc2cc(Cl)c(O)cc2C(c2cccc3c2OCC3)C1 (single isomer, unassigned; (+)) [NNC 0756, (+)-8-chloro-7-hydroxy-3-methyl-5-(2,3-dihydrobenzofuran-7-yl)-2,3,4,5-tetrahydro-1H-3-benzazepine]
half life [2]: relatively long half life
REM and non-REM sleep [3]: increase in both REM and non-REM sleep
time spent in sleep [3]: markedly enhance the time spent in sleep

Structure (SMILES): Oc1cc2c(cc1O)C(c1ccccc1)CNCC2 (centres unmarked) [SKF 38393]
amount of REM sleep [4]: reduced the amount of REM sleep
duration of wakefulness [4]: increased the duration of wakefulness

serum concentration of the compound of Example 4 relative to the serum concentration measured 1.5 hours after drug administration ([1]; 25 mg oral, three men, 6 hours after administration vs 1.5 hours): about 10%
elimination time compared to NNC 0756 ([1]; compared to the kinetic profile of NNC 0756): shorter elimination time
Structure (SMILES): CN1CCc2cc([N+](=O)[O-])c(O)cc2C(c2cccc3c2OCC3)C1 (single isomer, unassigned; (+)) [Example 4, (+)-5-(2,3-dihydrobenzofuran-7-yl)-7-hydroxy-3-methyl-8-nitro-2,3,4,5-tetrahydro-1H-3-benzazepine]
